# Results from patent US11000514B2, “Antifungal compounds” (Duke University, priority 2014, dated 2021).
# Key:
# Type in all cases: cell-based
# Candida w/ FLu. = experiment: standardized in vitro susceptibility test, Candida w/ FLu.; settings: with FLu.; yes/no
# C. neo = experiment: standardized in vitro susceptibility test, C. neo; settings: yes/no
# Asp/Caspo = experiment: standardized in vitro susceptibility test, Asp/Caspo; settings: with Caspo
# Asp = experiment: standardized in vitro susceptibility test, Asp alone (MEC)
structure (smiles),measurement,setting,value
CO[C@H]1C[C@@H](C)C/C(C)=C/[C@@H](C/C=C/c2ccc(C(=O)O)cc2)C(=O)C[C@H](O)[C@@H](C)[C@@H](/C(C)=C/[C@@H]2CC[C@@H](O)[C@H](OC)C2)OC(=O)[C@@H]2CCCCN2C(=O)C(=O)[C@]2(O)O[C@H]1[C@@H](OC)C[C@H]2C [Compound 2],Active Candida w/ FLu.,Candida w/ FLu.,no
same,Active C. neo,C. neo,yes
same,Active Asp Caspo,Asp/Caspo; yes/no,Yes
same,Active Asp alone (MEC),Asp; yes/no,yes
CCCC/C=C/C[C@@H]1/C=C(\C)C[C@H](C)C[C@H](OC)[C@H]2O[C@@](O)(C(=O)C(=O)N3CCCC[C@H]3C(=O)O[C@H](/C(C)=C/[C@@H]3CC[C@@H](O)[C@H](OC)C3)[C@H](C)[C@@H](O)CC1=O)[C@H](C)C[C@@H]2OC [Compound 3],Active Candida w/ FLu.,Candida w/ FLu.,yes
same,Active C. neo,C. neo,yes
same,Active Asp Caspo,Asp/Caspo; concentration,4 µg/mL
same,Active Asp Caspo,Asp/Caspo; yes/no,yes
same,Active Asp alone (MEC),Asp; yes/no,no
CCC(C)C/C=C/C[C@@H]1/C=C(\C)C[C@H](C)C[C@H](OC)[C@H]2O[C@@](O)(C(=O)C(=O)N3CCCC[C@H]3C(=O)O[C@H](/C(C)=C/[C@@H]3CC[C@@H](O)[C@H](OC)C3)[C@H](C)[C@@H](O)CC1=O)[C@H](C)C[C@@H]2OC (some centres unmarked) [Compound 4],Active Candida w/ FLu.,Candida w/ FLu.,yes
same,Active C. neo,C. neo,yes
same,Active Asp Caspo,Asp/Caspo; concentration,8 µg/mL
same,Active Asp Caspo,Asp/Caspo; yes/no,yes
same,Active Asp alone (MEC),Asp; yes/no,no
CO[C@H]1C[C@@H](C)C/C(C)=C/[C@@H](C/C=C/CC(=O)O)C(=O)C[C@H](O)[C@@H](C)[C@@H](/C(C)=C/[C@@H]2CC[C@@H](O)[C@H](OC)C2)OC(=O)[C@@H]2CCCCN2C(=O)C(=O)[C@]2(O)O[C@H]1[C@@H](OC)C[C@H]2C [Compound 5],Active Candida w/ FLu.,Candida w/ FLu.,yes
same,Active C. neo,C. neo,yes
same,Active Asp Caspo,Asp/Caspo; concentration,1 µg/mL
same,Active Asp Caspo,Asp/Caspo; yes/no,yes
same,Active Asp alone (MEC),Asp; MEC concentration,(8 ug/mL)
same,Active Asp alone (MEC),Asp; yes/no,yes
